Assay [1] relates to SARS-CoV-2. The conditions noted are these: vero e6.
Description: (§1) Antiviral activity against SARS-CoV-2 D614 isolates infected in African green monkey Vero E6 cells assessed as reduction in plaque formation treated for 1 hr prior to infection with cells incubated for 30 mins by plaque reduction neutralization test
Assay [2] deals with SARS-CoV-2. It counts as functional, organism-based, Severe acute respiratory syndrome coronavirus 2, G614, Vero E6.
Assay [3] deals with SARS-CoV-2. Briefly: microbe, parasite or virus in culture. The conditions noted are these: Severe acute respiratory syndrome coronavirus 2, D614, Vero C1008.
Description: as §1
Assay [4] has as its target Spike glycoprotein (Severe acute respiratory syndrome coronavirus 2, UniProt P0DTC2). Briefly: Binding affinity to RBD domain of SARS-CoV-2 spike protein assessed as dissociation constant by Isothermal Titration Calorimetry. A general note: ITC needs no label: the signal is the heat of the interaction.
Assay [5] addresses T1, Heparanase (Homo sapiens, UniProt Q9Y251).
T1 sequence (Q9Y251 whole entry): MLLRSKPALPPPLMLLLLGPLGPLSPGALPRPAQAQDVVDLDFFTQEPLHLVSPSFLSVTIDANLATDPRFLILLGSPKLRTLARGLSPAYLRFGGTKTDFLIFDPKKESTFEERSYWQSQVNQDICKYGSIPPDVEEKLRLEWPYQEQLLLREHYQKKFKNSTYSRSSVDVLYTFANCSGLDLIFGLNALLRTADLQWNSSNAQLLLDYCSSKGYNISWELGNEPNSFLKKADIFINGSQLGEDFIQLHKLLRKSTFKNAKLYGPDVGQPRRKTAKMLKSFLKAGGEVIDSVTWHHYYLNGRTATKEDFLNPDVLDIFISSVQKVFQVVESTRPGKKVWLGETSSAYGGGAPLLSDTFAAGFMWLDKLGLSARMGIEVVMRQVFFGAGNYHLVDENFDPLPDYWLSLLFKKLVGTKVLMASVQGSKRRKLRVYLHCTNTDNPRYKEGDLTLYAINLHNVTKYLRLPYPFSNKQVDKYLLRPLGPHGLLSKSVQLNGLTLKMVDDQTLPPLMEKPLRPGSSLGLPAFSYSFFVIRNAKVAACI
Briefly: Inhibition of recombinant human heparanase expressed in Insect cells assessed as fondaparinux cleavage by measuring disaccharide product incubated for 18 to 21 hrs. The conditions noted are these: insect cell.

Assay [6] deals with Respiratory syncytial virus. Briefly: Antiviral activity against RSV A2 strain infected in HEp-2 cells assessed as reduction in plaque number measured after 3 days incubation. The following applies: human respiratory syncytial virus, A2, HEp-2, 72 h.
Assay [7] has as its system Human alphaherpesvirus 2. The assay is described as follows: Antiviral activity against HSV2 infected in CMK AH1 cells assessed as reduction in plaque number measured after 2 days incubation. The conditions noted are these: Human alphaherpesvirus 2, CMK AH1, 48 h.
The mark [8] stands for this setting: Severe acute respiratory syndrome coronavirus 2, G614, Vero C1008, read-out: IC50.

The values below come from ChEMBL document CHEMBL5523749, “Amphiphilic Heparinoids as Potent Antiviral Agents against SARS-CoV-2” (J Med Chem, 2024).

≈ marks a conversion by molar mass, not a printed value.

As to `[N-]=[N+]=NCCCCCCCCCCC(=O)NCCCCCCCCCCCO[C@@H]1O[C@H](COS(=O)(=O)[O-])[C@@H](O[C@H]2O[C@H](COS(=O)(=O)[O-])[C@@H](O[C@H]3O[C@H](COS(=O)(=O)[O-])[C@@H](O[C@H]4O[C@H](COS(=O)(=O)[O-])[C@@H](OS(=O)(=O)[O-])[C@H](OS(=O)(=O)[O-])[C@H]4OS(=O)(=O)[O-])[C@H](OS(=O)(=O)[O-])[C@H]3OS(=O)(=O)[O-])[C@H](OS(=O)(=O)[O-])[C@H]2OS(=O)(=O)[O-])[C@H](OS(=O)(=O)[O-])[C@H]1OS(=O)(=O)[O-].[Na+].[Na+].[Na+].[Na+].[Na+].[Na+].[Na+].[Na+].[Na+].[Na+].[Na+].[Na+].[Na+]`, the IC50 entry was “Not Active” in assay [1] and 84.1 µg/mL in assay [2] (setting [8]).
Take `CC(C)CCC[C@@H](C)[C@H]1CC[C@H]2[C@@H]3CC[C@H]4C[C@@H](O[C@H]5O[C@H](COS(=O)(=O)[O-])[C@@H](O[C@H]6O[C@H](COS(=O)(=O)[O-])[C@@H](O[C@H]7O[C@H](COS(=O)(=O)[O-])[C@@H](O[C@H]8O[C@H](COS(=O)(=O)[O-])[C@@H](O[C@H]9O[C@H](COS(=O)(=O)[O-])[C@@H](O[C@H]%10O[C@H](COS(=O)(=O)[O-])[C@@H](OS(=O)(=O)[O-])[C@H](OS(=O)(=O)[O-])[C@H]%10OS(=O)(=O)[O-])[C@H](OS(=O)(=O)[O-])[C@H]9OS(=O)(=O)[O-])[C@H](OS(=O)(=O)[O-])[C@H]8OS(=O)(=O)[O-])[C@H](OS(=O)(=O)[O-])[C@H]7OS(=O)(=O)[O-])[C@H](OS(=O)(=O)[O-])[C@H]6OS(=O)(=O)[O-])[C@H](OS(=O)(=O)[O-])[C@H]5OS(=O)(=O)[O-])CC[C@]4(C)[C@H]3CC[C@]12C.[Na+].[Na+].[Na+].[Na+].[Na+].[Na+].[Na+].[Na+].[Na+].[Na+].[Na+].[Na+].[Na+].[Na+].[Na+].[Na+].[Na+].[Na+].[Na+]`: the results for the IC50 in assay [3] and in assay [2] (setting [8]) were 12.2 µg/mL and 21.7 µg/mL, respectively. Besides, in assay [4], the Kd was found to be 1.87 µM.
Turning to `CC(C)CCC[C@@H](C)[C@H]1CC[C@H]2[C@@H]3CC[C@H]4C[C@@H](O[C@@H]5O[C@@H](C(=O)O)[C@@H](O[C@@H]6O[C@@H](C(=O)O)[C@@H](OS(=O)(=O)O)[C@H](O)[C@H]6OS(=O)(=O)O)[C@H](O)[C@H]5OS(=O)(=O)O)CC[C@]4(C)[C@H]3CC[C@]12C`, the values for the IC50 in assay [3] and in assay [5] were 33.7 µg/mL (≈ 34.3 µM) and “Not Active”, respectively.
As to `CC(C)CCC[C@@H](C)[C@H]1CC[C@H]2[C@@H]3CC[C@H]4C[C@@H](O[C@@H]5O[C@H](COS(=O)(=O)[O-])[C@@H](O[C@H]6O[C@H](COS(=O)(=O)[O-])[C@@H](O[C@H]7O[C@H](COS(=O)(=O)[O-])[C@@H](O[C@H]8O[C@H](COS(=O)(=O)[O-])[C@@H](OS(=O)(=O)[O-])[C@H](OS(=O)(=O)[O-])[C@H]8OS(=O)(=O)[O-])[C@H](OS(=O)(=O)[O-])[C@H]7OS(=O)(=O)[O-])[C@H](OS(=O)(=O)[O-])[C@H]6OS(=O)(=O)[O-])[C@H](OS(=O)(=O)[O-])[C@H]5OS(=O)(=O)[O-])CC[C@]4(C)[C@H]3CC[C@]12C.[Na+].[Na+].[Na+].[Na+].[Na+].[Na+].[Na+].[Na+].[Na+].[Na+].[Na+].[Na+].[Na+]`, the IC50 in assay [3] was 29.6 µg/mL; in assay [6], roughly 1 µg/mL; in assay [7], roughly 1 µg/mL. For the same compound, the Kd in assay [4] is 9.12 µM.
Take `O=C(CCCCCCCCCCn1cc(CNc2ccc([N+](=O)[O-])c3nonc23)nn1)NCCCCCCO[C@@H]1O[C@H](COS(=O)(=O)[O-])[C@@H](O[C@H]2O[C@H](COS(=O)(=O)[O-])[C@@H](O[C@H]3O[C@H](COS(=O)(=O)[O-])[C@@H](O[C@H]4O[C@H](COS(=O)(=O)[O-])[C@@H](OS(=O)(=O)[O-])[C@H](OS(=O)(=O)[O-])[C@H]4OS(=O)(=O)[O-])[C@H](OS(=O)(=O)[O-])[C@H]3OS(=O)(=O)[O-])[C@H](OS(=O)(=O)[O-])[C@H]2OS(=O)(=O)[O-])[C@H](OS(=O)(=O)[O-])[C@H]1OS(=O)(=O)[O-].[Na+].[Na+].[Na+].[Na+].[Na+].[Na+].[Na+].[Na+].[Na+].[Na+].[Na+].[Na+].[Na+]`: the IC50 result in assay [1] was “Not Active”; in assay [2] (setting [8]), 16.1 µg/mL.
Take `CCCCCCCCCCCCCCCCCC(=O)NCCCO[C@@H]1O[C@H](COS(=O)(=O)[O-])[C@@H](O[C@H]2O[C@H](COS(=O)(=O)[O-])[C@@H](O[C@H]3O[C@H](COS(=O)(=O)[O-])[C@@H](O[C@H]4O[C@H](COS(=O)(=O)[O-])[C@@H](O[C@H]5O[C@H](COS(=O)(=O)[O-])[C@@H](O[C@H]6O[C@H](COS(=O)(=O)[O-])C(OS(=O)(=O)[O-])[C@H](OS(=O)(=O)[O-])[C@H]6OS(=O)(=O)[O-])[C@H](OS(=O)(=O)[O-])[C@H]5OS(=O)(=O)[O-])[C@H](OS(=O)(=O)[O-])[C@H]4OS(=O)(=O)[O-])[C@H](OS(=O)(=O)[O-])[C@H]3OS(=O)(=O)[O-])[C@H](OS(=O)(=O)[O-])[C@H]2OS(=O)(=O)[O-])[C@H](OS(=O)(=O)[O-])[C@H]1OS(=O)(=O)[O-].[Na+].[Na+].[Na+].[Na+].[Na+].[Na+].[Na+].[Na+].[Na+].[Na+].[Na+].[Na+].[Na+].[Na+].[Na+].[Na+].[Na+].[Na+].[Na+]` (stereo not given in full): the IC50 entry in assay [1] and in assay [2] (vero e6) was “Not Active” in each case.

As usually defined, the IC50 is the concentration needed to halve the response being measured. As usually defined, the Kd is the equilibrium constant for the complex coming apart.
